Reference: patent publication US9315498B2, “Arlethynyl derivatives” (Hoffmann-La Roche Inc., priority 2010, dated 2016)

Target: human mGlu5a receptor (Homo sapiens (Human), UniProt P41594)
Assay: Intracellular Ca2+ mobilization assay (mGlu5 PAM)
Format: cell-based
Conditions: for EC50: HEK-293 cells stably transfected with human mGlu5a, L-glutamate added at EC20 after pre-incubation with test compound, read-out: EC50 (nM) mGlu5PAM; for Emax: maximal response in % of the maximal stimulatory effect obtained with saturating concentrations of L-glutamate, read-out: Eff. (%)
Experimental: A monoclonal HEK-293 cell line stably transfected with a cDNA encoding for the human mGlu5a receptor was generated; for the work with mGlu5 Positive Allosteric Modulators (PAMs), a cell line with low receptor expression levels and low constitutive receptor activity was selected to allow the differentiation of agonistic versus PAM activity. Cells were cultured according to standard protocols (Freshney, 2000) in Dulbecco's Modified Eagle Medium with high glucose supplemented with 1 mM glutamine, 10% (vol/vol) heat-inactivated bovine calf serum, Penicillin/Streptomycin, 50 μg/ml hygromycin and 15 μg/ml blasticidin (all cell culture reagents and antibiotics from Invitrogen, Basel, Switzerland).
About 24 hrs before an experiment, 5×10^4 cells/well were seeded in poly-D-lysine coated, black/clear-bottomed 96-well plates. The cells were loaded with 2.5 μM Fluo-4AM in loading buffer (1×HBSS, 20 mM HEPES) for 1 hr at 37° C. and washed five times with loading buffer. The cells were transferred into a Functional Drug Screening System 7000 (Hamamatsu, Paris, France), and 11 half logarithmic serial dilutions of test compound at 37° C. were added and the cells were incubated for 10-30 min. with on-line recording of fluorescence. Following this pre-incubation step, the agonist L-glutamate was added to the cells at a concentration corresponding to EC20 (typically around 80 μM) with on-line recording of fluorescence; in order to account for day-to-day variations in the responsiveness of cells, the EC20 of glutamate was determined immediately ahead of each experiment by recording of a full dose-response curve of glutamate.
Responses were measured as peak increase in fluorescence minus basal (i.e. fluorescence without addition of L-glutamate), normalized to the maximal stimulatory effect obtained with saturating concentrations of L-glutamate. Graphs were plotted with the % maximal stimulatory using XLfit, a curve fitting program that iteratively plots the data using Levenburg Marquardt algorithm. The single site competition analysis equation used was y=A+((B−A)/(1+((x/C)D))), where y is the % maximal stimulatory effect, A is the minimum y, B is the maximum y, C is the EC50, x is the log10 of the concentration of the competing compound and D is the slope of the curve (the Hill Coefficient). From these curves the EC50 (concentration at which half maximal stimulation was achieved), the Hill coefficient as well as the maximal response in % of the maximal stimulatory effect obtained with saturating concentrations of L-glutamate were calculated.
A depression of the signal observed after addition of the EC20 concentration of L-glutamate was indicative of an inhibitory activity of the test compound.

Sequence of human mGlu5a receptor (P41594 other isoform, or with tags, fused parts or gaps): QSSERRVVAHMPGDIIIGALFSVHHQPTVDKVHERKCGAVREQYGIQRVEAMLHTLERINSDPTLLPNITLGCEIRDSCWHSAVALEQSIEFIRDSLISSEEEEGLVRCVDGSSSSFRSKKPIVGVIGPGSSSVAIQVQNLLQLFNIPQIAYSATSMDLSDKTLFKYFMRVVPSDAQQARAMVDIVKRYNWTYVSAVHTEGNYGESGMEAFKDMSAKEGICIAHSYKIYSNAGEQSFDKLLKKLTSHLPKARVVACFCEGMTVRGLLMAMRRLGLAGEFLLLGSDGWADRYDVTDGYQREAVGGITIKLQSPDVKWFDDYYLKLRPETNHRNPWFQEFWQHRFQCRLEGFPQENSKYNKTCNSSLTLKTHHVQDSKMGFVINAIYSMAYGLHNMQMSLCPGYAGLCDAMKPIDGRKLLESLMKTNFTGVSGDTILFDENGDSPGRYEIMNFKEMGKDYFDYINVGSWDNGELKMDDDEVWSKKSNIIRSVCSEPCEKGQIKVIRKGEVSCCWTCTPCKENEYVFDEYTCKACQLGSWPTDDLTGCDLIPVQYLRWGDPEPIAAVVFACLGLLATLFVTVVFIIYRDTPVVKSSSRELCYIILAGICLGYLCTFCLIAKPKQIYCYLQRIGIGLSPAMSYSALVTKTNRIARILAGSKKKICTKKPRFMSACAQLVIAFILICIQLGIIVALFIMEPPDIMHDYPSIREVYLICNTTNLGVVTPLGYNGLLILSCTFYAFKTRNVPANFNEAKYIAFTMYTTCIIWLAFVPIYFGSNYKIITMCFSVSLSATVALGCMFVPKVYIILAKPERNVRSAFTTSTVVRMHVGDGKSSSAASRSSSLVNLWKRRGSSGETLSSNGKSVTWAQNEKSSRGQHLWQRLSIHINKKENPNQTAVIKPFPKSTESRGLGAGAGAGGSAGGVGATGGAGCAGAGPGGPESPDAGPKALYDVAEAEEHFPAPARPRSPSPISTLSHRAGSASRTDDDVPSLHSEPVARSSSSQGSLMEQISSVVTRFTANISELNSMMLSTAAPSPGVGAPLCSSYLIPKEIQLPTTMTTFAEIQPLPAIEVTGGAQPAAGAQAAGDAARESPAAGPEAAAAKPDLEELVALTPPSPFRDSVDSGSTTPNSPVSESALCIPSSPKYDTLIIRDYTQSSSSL

Structure (SMILES) | EC50 | Emax
COCC1CN(c2ccc(C#Cc3ccccc3)cn2)C(=O)O1 (racemic) [Example 2, (5RS)-5-Methoxymethyl-3-(5-phenylethynyl-pyridin-2-yl)-oxazolidin-2-one] | 47 nM | 34%
CC(C)(C)C1CN(c2ccc(C#Cc3ccccc3)cn2)C(=O)O1 (racemic) [Example 8, (5RS)-5-tert-Butyl-3-(5-phenylethynyl-pyridin-2-yl)-oxazolidin-2-one] | 17 nM | 62%
CC1(C)CN(c2ccc(C#Cc3ccccc3)cn2)C(=O)C1O (racemic) [Example 14, (3RS)-3-Hydroxy-4,4-dimethyl-1-(5-phenylethynyl-pyridin-2-yl)-pyrrolidin-2-one] | 388 nM | 114%
CC(C)(C)C1(C)CN(c2ccc(C#Cc3ccccc3)cn2)C(=O)O1 (racemic) [Example 19, (5RS)-5-tert-Butyl-5-methyl-3-(5-phenylethynyl-pyridin-2-yl)-oxazolidin-2-one] | 27 nM | 85%
O=C1O[C@H]2CCC[C@H]2N1c1ccc(C#Cc2ccccc2)cn1 (racemic) [Example 22, (3aRS,6aSR)-3-(5-Phenylethynyl-pyridin-2-yl)-hexahydro-cyclopentaoxazol-2-one] | 14 nM | 74%
O=C1O[C@H]2CCC[C@H]2N1c1ccc(C#Cc2cccnc2)cn1 (racemic) [Example 23, (3aRS,6aSR)-3-(5-Pyridin-3-ylethynyl-pyridin-2-yl)-hexahydro-cyclopentaoxazol-2-one] | 12 nM | 92%
O=C1O[C@H]2CCC[C@H]2N1c1ccc(C#Cc2cncc(F)c2)cn1 (racemic) [Example 24, (3aRS,6aSR)-3-[5-(5-Fluoro-pyridin-3-ylethynyl)-pyridin-2-yl]-hexahydro-cyclopentaoxazol-2-one] | 35 nM | 73%
CC1N(c2ccc(C#Cc3ccccc3)cn2)C(=O)OC1(C)C (racemic) [Example 27, (RS)-4,5,5-Trimethyl-3-(5-phenylethynyl-pyridin-2-yl)-oxazolidin-2-one] | 15 nM | 61%
CN1C(=O)N(c2ccc(C#Cc3ccccc3)cn2)CC1C1CCCC1 (racemic) [Example 45, (RS)-4-Cyclopentyl-3-methyl-1-(5-phenylethynyl-pyridin-2-yl)-imidazolidin-2-one] | 57 nM | 97%
O=C1[C@H]2CCC[C@H]2N1c1ccc(C#Cc2ccccc2)cn1 (racemic) [Example 46, (1RS,5SR)-6-(5-Phenylethynyl-pyridin-2-yl)-6-aza-bicyclo[3.2.0]heptan-7-one] | 26 nM | 27%
O=C1O[C@H]2CCCC[C@H]2N1c1ccc(C#Cc2ccccc2)cn1 (racemic) [Example 47, (6SR,7RS)-3-(5-Phenylethynyl-pyridin-2-yl)-hexahydro-benzooxazol-2-one] | 36 nM | 109%
O=C1N(c2ccc(C#Cc3ccccc3)cn2)CC2CCCCN12 (racemic) [Example 58, (RS)-2-(5-Phenylethynyl-pyridin-2-yl)-hexahydro-imidazo[1,5-a]pyridin-3-one] | 33 nM | 43%
COC1C(=O)N(c2ccc(C#Cc3ccccc3)cn2)CC1(C)C (racemic) [Example 60, (RS)-3-Methoxy-4,4-dimethyl-1-(5-phenylethynyl-pyridin-2-yl)-pyrrolidin-2-one] | 35 nM | 89%
COC1C(=O)N(c2ccc(C#Cc3cncc(Cl)c3)cn2)CC1(C)C (racemic) [Example 63, (RS)-1-[5-(5-Chloro-pyridin-3-ylethynyl)-pyridin-2-yl]-3-methoxy-4,4-dimethyl-pyrrolidin-2-one] | 70 nM | 99%
COC1C(=O)N(c2ccc(C#Cc3cccc(C)c3)cn2)CC1(C)C (racemic) [Example 64, (RS)-3-Methoxy-4,4-dimethyl-1-(5-m-tolylethynyl-pyridin-2-yl)-pyrrolidin-2-one] | 87 nM | 56%
COC1C(=O)N(c2ccc(C#Cc3cccc(F)c3)cn2)CC1(C)C (racemic) [Example 65, (RS)-1-[5-(3-Fluoro-phenylethynyl)-pyridin-2-yl]-3-methoxy-4,4-dimethyl-pyrrolidin-2-one] | 43 nM | 91%
COC1C(=O)N(c2ccc(C#Cc3ccc(F)cc3)cn2)CC1(C)C (racemic) [Example 66, (RS)-1-[5-(4-Fluoro-phenylethynyl)-pyridin-2-yl]-3-methoxy-4,4-dimethyl-pyrrolidin-2-one] | 75 nM | 87%
O=C1N(c2ccc(C#Cc3cccnc3)cn2)CC2CCCCN12 (racemic) [Example 70, (RS)-2-(5-Pyridin-3-ylethynyl-pyridin-2-yl)-hexahydro-imidazo[1,5-a]pyridin-3-one] | 74 nM | 51%
O=C1N(c2ccc(C#Cc3cccc(F)c3)cn2)CC2CCCCN12 (racemic) [Example 71, (RS)-2-[5-(3-Fluoro-phenylethynyl)-pyridin-2-yl]-hexahydro-imidazo[1,5-a]pyridin-3-one] | 17 nM | 41%
CN1C(=O)N(c2ccc(C#Cc3ccccc3)cn2)CC1C1CC1 (racemic) [Example 83, (RS)-4-Cyclopropyl-3-methyl-1-(5-phenylethynyl-pyridin-2-yl)-imidazolidin-2-one] | 53 nM | 86%
CC1(C)OC(=O)N(c2ccc(C#Cc3ccccc3)cn2)CC1O (racemic) [Example 95, (RS)-5-Hydroxy-6,6-dimethyl-3-(5-phenylethynyl-pyridin-2-yl)-[1,3]oxazinan-2-one] | 47 nM | 118%
O=C1[C@H]2CCC[C@H]2N1c1ccc(C#Cc2cccnc2)cn1 (racemic) [Example 98, (1RS,5SR)-6-(5-Pyridin-3-ylethynyl-pyridin-2-yl)-6-aza-bicyclo[3.2.0]heptan-7-one] | 39 nM | 73%
O=C1O[C@H]2CCC[C@@H]2CN1c1ccc(C#Cc2ccccc2)cn1 (racemic) [Example 102, (4aRS,7aSR)-3-(5-Phenylethynyl-pyridin-2-yl)-hexahydro-cyclopenta[e][1,3]oxazin-2-one] | 43 nM | 115%
CC1CN(c2ccc(C#Cc3ccccc3)cn2)C(=O)OC1(C)C (racemic) [Example 104, (RS)-5,6,6-Trimethyl-3-(5-phenylethynyl-pyridin-2-yl)-[1,3]oxazinan-2-one] | 42 nM | 109%
COCC1CCN(c2ccc(C#Cc3ccccc3)cn2)C(=O)O1 (racemic) [Example 105, (RS)-6-Methoxymethyl-3-(5-phenylethynyl-pyridin-2-yl)-[1,3]oxazinan-2-one] | 68 nM | 51%
CN1C(=O)N(c2ccc(C#Cc3ccccc3)cn2)[C@@H]2CCC[C@@H]21 (racemic) [Example 106, (3aRS, 6aSR)-1-methyl-3-(5-(phenylethynyl)pyridin-2-yl)hexahydrocyclopenta[d]imidazol-2(1H)-one] | 30 nM | 42%
CN1C(=O)N(c2ccc(C#Cc3ccccc3)cn2)CC1C(C)(C)C (racemic) [Example 107, (RS)-4-tert-Butyl-3-methyl-1-(5-phenylethynyl-pyridin-2-yl)-imidazolidin-2-one] | 59 nM | 106%
CN1C(=O)N(c2ccc(C#Cc3cccc(F)c3)cn2)[C@@H]2CCC[C@@H]21 (racemic) [Example 109, (3aSR,6aRS)-1-[5-(3-Fluoro-phenylethynyl)-pyridin-2-yl]-3-methyl-hexahydro-cyclopenta-imidazol-2-one] | 18 nM | 37%
COC1CN(c2ccc(C#Cc3ccccc3)cn2)C(=O)OC1(C)C (racemic) [Example 114, (RS)-5-Methoxy-6,6-dimethyl-3-(5-phenylethynyl-pyridin-2-yl)-[1,3]oxazinan-2-one] | 22 nM | 57%
COC1C(=O)N(c2ncc(C#Cc3ccccc3)cn2)CC1(C)C (racemic) [Example 127, (RS)-3-Methoxy-4,4-dimethyl-1-(5-phenylethynyl-pyrimidin-2-yl)-pyrrolidin-2-one] | 29 nM | 94%
